Reference: patent publication US8501955B2, “Acetamide derivatives as glucokinase activators, their process and medicinal application” (Advinus Therapeutics Private Limited, priority 2007, dated 2013)

Tests used:
primary rat hepatocytes = assay: Measurement of glycogen synthesis in primary rat hepatocytes; format: cell-based; conditions: Rattus norvegicus, Hepatocyte, 3 h, 10 μM compound, 10 mM glucose, fold increase over DMSO control
Experimental: Primary hepatocytes are collected from male Wistar rats, and tested for viability by trypan blue exclusion. Primary hepatocytes cultures with viability greater than 95% are selected for the glycogen synthesis assay. The cells are seeded in a 48-well plate at a density of 200,000 cells/well in 250 μl Minimal Essential Medium (MEM) containing 10% foetal calf serum (FCS) and 1.7 μM insulin, and incubated for 4 hours at 37° C. to allow attachment. The medium is replaced with fresh MEM containing 10% FCS, 1.7 μM insulin and 10 nM dexamethasone, and the cells are incubated for 16 hours at 37° C. The medium is then replaced with fresh MEM (serum-free) containing 2 μCi/ml of D-[U^14C]-Glucose along with 10 μM of the compound in a final DMSO concentration of 0.1%. The final glucose concentration is brought to 10 mM by the addition of D-Glucose (MEM already contains 5 mM glucose). The cells are incubated for 3 hours at 37° C. The cells are washed twice with 150 mM NaCl, lysed with 0.1 N NaOH, and the lysate precipitated with 8% w/v trichloroacetic acid (TCA) and 1 mg/well unlabeled glycogen as carrier. Cell debris is pelleted by centrifugation, the supernatant is removed, and the glycogen is precipitated with 63% ethanol. After another round of centrifugation, the supernatant is removed, and the pellet containing the precipitated glycogen is dried overnight. De novo synthesized glycogen is estimated in a scintillation counter (MicroBeta Trilux, Perkin Elmer), and expressed as fold increase over DMSO control.
The protocol for the glycogen assay is based on the method described in “Biochem J. 1990 Feb. 15; 266(1): 91-102” with a few minor modifications. The protocol for isolation of primary rat hepatocytes is based on the method described in “Methods in Enzymology, Vol. III. pp 34-50. Ed. by S. P. Colowick and N. O. Kaplan. New York, Academic Press, 1957” with a few minor modifications.
Compounds described in formula (I), in concentration ranges from 1.0 nM to 500 μM, are tested in glycogen synthesis assay described above.

[1] = molecular target: T1, purified human recombinant GK (Homo sapiens, UniProt P35557); assay: Glucokinase activity assay (coupled enzymatic GK/G6PD assay, NADH absorbance at 340 nm); format: biochemical; conditions: for EC50: EC50 of % change in S0.5 of glucokinase for glucose, sigmoidal fit, read-out: EC50 (with respect to % ΔS0.5); for Emax: Emax of % change in S0.5, vehicle S0.5 = 0%, 0 mM glucose = 100%, read-out: % Emax (with respect to % ΔS0.5)
T1 sequence (P35557 1-465): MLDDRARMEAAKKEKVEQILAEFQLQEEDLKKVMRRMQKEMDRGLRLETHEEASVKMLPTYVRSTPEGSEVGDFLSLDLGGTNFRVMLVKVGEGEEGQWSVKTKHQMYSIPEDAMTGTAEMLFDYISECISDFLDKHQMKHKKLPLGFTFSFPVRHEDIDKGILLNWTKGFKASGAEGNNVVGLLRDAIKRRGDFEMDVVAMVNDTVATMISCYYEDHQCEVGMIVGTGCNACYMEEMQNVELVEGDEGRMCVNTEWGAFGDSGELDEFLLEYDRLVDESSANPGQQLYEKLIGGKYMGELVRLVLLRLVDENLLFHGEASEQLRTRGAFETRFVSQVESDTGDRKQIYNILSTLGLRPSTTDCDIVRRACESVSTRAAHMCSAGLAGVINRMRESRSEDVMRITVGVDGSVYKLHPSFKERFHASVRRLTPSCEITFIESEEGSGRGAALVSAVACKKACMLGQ
Excerpt: The glucokinase (GK) assay is a coupled enzymatic assay. GK catalyzes the first step of glycolysis, the conversion of glucose to glucose-6-phosphate (G6P) in the presence of ATP. G6P in turn is converted by glucose-6-phosphate dehydrogenase (G6PD) to 6-phosphogluconate, a process that requires NAD, resulting in NADH formation. Since the GK-catalyzed step is the rate-limiting step of this coupled enzymatic process, the rate of accumulation of 6-phosphogluconate and NADH is directly proportional to the rate of glucose phosphorylation by GK. The rate of the GK-catalyzed reaction can therefore be measured by monitoring the increase in NADH absorbance at 340 nm.
The assay is carried out according to the protocol outlined in Hariharan et al (1997), Diabetes 46: 11-16. Briefly, the test compounds are incubated in a reaction mix containing 25 mM HEPES (pH 7.2), 10 mM MgCl2, 100 mM KCl, 5 mM ATP, 2 mM DTT, 0.5 mM NAD, 1 U/ml Leuconostoc mesenteroides G6PD, 0.3 U/ml of purified human recombinant GK, and different concentrations of glucose. Enzymatic activity is calculated from the initial reaction velocity, measured from the change in NADH absorbance as a function of time.
Compounds described in formula (I), in concentration ranges from 1.0 nM to […] are tested in the purified human recombinant glucokinase assay described above.
A compound is considered to be a glucokinase activator if it, in its testable range of concentrations, yields a higher rate of glucose phosphorylation than in its absence at a particular glucose concentration, for example at 5 mM glucose.
Compounds of general formula (I) are tested in the in vitro GK enzymatic assay to monitor dose-dependent effect on glucokinase activation (in kinetic mode), as described above, at various glucose concentrations. The S0.5 of glucokinase for glucose at different concentration of each compound of interest is calculated from the following modified version of the Michaelis-Menten equation, V=Vmax[S]^n/(S0.5^n+[S]^n), where [S] is the glucose concentration and n is the Hill coefficient (taken as 1.7 to account for the sigmoidal kinetics of glucokinase with respect to glucose). The S0.5 is plotted against the log of the compound concentration. The change in the S0.5 of glucokinase (ΔS0.5) for glucose is calculated by subtracting the S0.5 at each concentration of the compound from the S0.5 in the vehicle control. The ΔS0.5 is then normalized to a percent scale, where the S0.5 in the vehicle control is set to 0% and 0 mM glucose is set to 100%. The % ΔS0.5 is then plotted against the log of the compound concentration. The EC50 and Emax of % change in S0.5 is obtained from the sigmoidal fit of the data. Detailed protocol has been described in our copending application no. WO 2008/104994 which is incorporated herein by reference. Characterization data of some representative glucokinase activators of the present disclosure, which are illustrative but not limiting, are given in table 1 below.

| EC50 [1] | Emax [1] | Compound | fold induction at 10 µM (primary rat hepatocytes) |
| --- | --- | --- | --- |
| 0.37 µM | 95% | O=C(O)Cc1nc(NC(=O)C(Oc2ccc(F)cc2F)c2ccc(S(=O)(=O)C3CCCC3)cc2)sc1Cl (single isomer, unassigned; (-)) [Example E2, (−)-{5-Chloro-2-[2-(4-cyclopentanesulfonyl-phenyl)-2-(2,4-difluorophenoxy)acetyl-amino]thiazol-4-yl}-acetic acid] | 8.8 |
|  |  | O=C(O)c1ccc(Oc2cnc(NC(=O)C(OC3CCOCC3)c3ccc(S(=O)(=O)C4CC4)cc3)s2)cc1 (single isomer, unassigned; (+)) [Example H7A, (+) 4-{2-[2-(4-Cyclopropanesulfonyl-phenyl)-2-(tetrahydro-pyran-4-yloxy)-acetylamino]-thiazol-5-yloxy}-benzoic acid] | 7.7 |
|  |  | COc1ccc2nc(NC(=O)C(OC3CCOCC3)c3ccc(S(=O)(=O)C4CC4)cc3)sc2n1 (single isomer, unassigned; (+)) [Example H12A, (+)2-(4-Cyclopropanesulfonyl-phenyl)-N-(5-methoxy-thiazolo[5,4-b]pyridin-2-yl)-2-(tetrahydro-pyran-4-yloxy)-Acetamide] | 5 |
|  |  | O=C(O)c1ccc(Oc2cnc(NC(=O)C(OC3CCOCC3)c3ccc(S(=O)(=O)C4CC4)cc3)s2)c(F)c1 (centres unmarked) [Example B94, 4-{2-[2-(4-Cyclopropanesulfonyl-phenyl)-2-(tetrahydro-pyran-4-yloxy)-acetylamino]-thiazol-5-yloxy}-3-fluoro-benzoic acid] | 8.7 |
| 1.6 µM | 90% | O=C(O)Cc1csc(NC(=O)C(Oc2ccc(F)cc2F)c2ccc(S(=O)(=O)C3CCCC3)cc2)n1 (centres unmarked) [Example B14, {2-[2-(4-Cyclopentanesulfonylphenyl)-2-(2,4-difluorophenoxy)-acetylamino]-thiazol-4-yl}acetic acid] |  |
| 0.22 µM | 91% | O=C(O)Cc1ccc(Oc2cnc(NC(=O)C(OC3CCOCC3)c3ccc(S(=O)(=O)C4CC4)cc3)s2)cc1 (centres unmarked) [Example B100, (4-{2-[2-(4-Cyclopropanesulfonyl-phenyl)-2-(tetrahydro-pyran-4-yloxy)-acetylamino]-thiazol-5-yloxy}-phenyl)-acetic acid] |  |
| 0.15 µM | 92% | N#Cc1ccc(Oc2cnc(NC(=O)C(OC3CCOCC3)c3ccc(S(=O)(=O)C4CC4)cc3)s2)cc1 (centres unmarked) [Example A117, N-[5-(4-Cyano-phenoxy)-thiazol-2-yl]-2-(4-cyclopropanesulfonyl-phenyl)-2-(tetrahydro-pyran-4-yloxy)-acetamide] |  |
| 1.27 µM | 90% | O=C(Nc1nncs1)C(Oc1ccc(F)cc1F)c1ccc(S(=O)(=O)C2CCCC2)cc1 (centres unmarked) [Example A27, 2-(4-Cyclopentanesulfonylphenyl)-2-(2,4-difluorophenoxy)-N-[1,3,4]thiadiazol-2-yl-acetamide] |  |
|  |  | Cc1csc(NC(=O)C(Oc2ccc(F)cc2F)c2ccc(S(=O)(=O)C3CC3)cc2)n1 (centres unmarked) [Example A15, 2-(4-Cyclopropanesulfonylphenyl)-2-(2,4-difluorophenoxy)-N-(4-methyl-thiazol-2-yl)acetamide] | 3.7 |
| 1.2 µM | 90% | O=C(Nc1cnccn1)C(Oc1ccc(Cl)cc1F)c1ccc(S(=O)(=O)C2CC2)cc1 (centres unmarked) [Example A47, 2-(4-Chloro-2-fluorophenoxy)-2-(4-cyclopropanesulfonylphenyl)-N-pyrazin-2-yl-acetamide] |  |
| > 10 µM |  | Cc1nc(NC(=O)C(Oc2ccc(F)cc2F)c2ccc(S(=O)(=O)C3CC3)cc2)sc1C(=O)O (centres unmarked) [Example B12, 2-[2-(4-Cyclopropanesulfonylphenyl)-2-(2,4-difluorophenoxy)acetylamino]-4-methylthiazole-5-carboxylic acid] |  |
| 0.15 µM | 95% | Cc1cnc(NC(=O)C(Oc2ccc(Cl)cc2F)c2ccc(S(=O)(=O)C3CC3)cc2)s1 (centres unmarked) [Example A43, 2-(4-Chloro-2-fluorophenoxy)-2-(4-cyclopropanesulfonylphenyl)-N-(5-methylthiazol-2-yl)acetamide] |  |
